This passage reports EC50 results from ChEMBL document CHEMBL1146575, “Imidazole alkaloids from Lepidium meyenii” (2003).

A value given as a limit tells only on which side of the number the result lay.

What all share (type): functional
A short description of test [1]: Cytotoxicity against human FDIGROV cells. Conditions: read-out: ED50 (the source's name).
In a further test the test system is A549. In words: Cytotoxicity against human A549 cells. To be noted: read-out: ED50 (the source's name).
Test [2] can be described thus: Cytotoxicity against human A4982LM cells. To be noted: read-out: ED50 (the source's name).
Another test deals with PC-3. Nature of the test: Cytotoxicity against human PC3 cells. Conditions: read-out: ED50 (the source's name).
For a further test, the system named is UMUC3. In words: Cytotoxicity against human UM-UC-3 cells. Conditions: read-out: ED50 (the source's name).
The nature of test [3]: Cytotoxicity against human MDA231 cells. Conditions: MDA-MB-231, read-out: ED50 (the source's name).
A further test has as its system HT-29. Nature of the test: Cytotoxicity against human HT-29 cells. To be noted: read-out: ED50 (the source's name).
Another test relates to MIA PaCa-2. Nature of the test: Cytotoxicity against human MIAPaCa2 cells. Conditions: read-out: ED50 (the source's name).

With `Cc1c(C)[n+](Cc2ccccc2)cn1Cc1ccccc1.[Cl-]` [LEPIDILINE A], the EC50 in test [1] was 7.39 mg/L; in the test on A549, over 10 mg/L; in test [2] it was over 10 mg/L; in the test with PC-3, over 10 mg/L; with UMUC3 it was over 10 mg/L; in test [3], over 10 mg/L. Further, the EC50 in the test with HT-29 and in the test with MIA PaCa-2 was over 10 mg/L each time.
In the case of `Cc1c(C)[n+](Cc2ccccc2)c(C)n1Cc1ccccc1.[Cl-]` [LEPIDILINE B], the EC50 in test [1] is 5.26 mg/L; with A549, over 10 mg/L; in test [2], over 10 mg/L; in the test on PC-3, over 10 mg/L; in the test on UMUC3, 6.47 mg/L; in test [3], 1.66 mg/L. Moreover, the EC50 in the test on HT-29 is over 10 mg/L; in the test with MIA PaCa-2 it was 1.38 mg/L.
